{
  "source": "patent US10308649B2",
  "about": "“Compounds and methods to suppress autoimmune response” (Oregon State University, priority 2014, dated 2019)",
  "key": {"[1]": {"conditions": "in humans; cited from earlier work"}, "[2]": {"system": "NOD.Foxp3DTR mice", "assay": "Islet infiltration in Foxp3 depleted (DT treated) NOD.Foxp3DTR mice", "type": "in vivo, mouse", "conditions": "day 9, AHRL1 60 mg/kg oral days -1, 1, 3, 5, 7, TCDD day -1", "text": "FIGS. 6a-6e illustrate the therapeutic effects of treatment with an AhR ligand on a Foxp3 deficient subject using a NOD.Foxp3− mouse model. […]. NOD.Foxp3^DTR mice were obtained from the Juvenile Diabetes Research Foundation Center (JDRF) for Immune Tolerance in Diabetes at Harvard (CITDH). Mice were bred and maintained under specific pathogen-free conditions at Oregon State University facilities. All experimental procedures using animals were approved by the Institutional Animal Care and Use Committee at Oregon State University.\nFIG. 6a illustrates details of the mouse model used to analyze the therapeutic effects and mechanisms by which AhR activation alters T cell differentiation. […] Arrows 152 illustrate the NOD.Foxp3^DTR mice were orally dosed with 60 mg/kg AHRL1 on days −1, 1, 3, 5, and 7 relative to DT treatment on day 0. The carrier for AHRL1 was a 30% DMSO, 20% CREMAPHOR, 50% PECEOL solution. Data was also collected from NOD.Foxp3^DTR mice treated with TCDD on day −1 relative to DT treatment on day 0. […]\nThe pancreases from the sacrificed mice were excised, sectioned, and stained with hematoxylin and eosin for analysis of islet infiltration by inflammatory CTL cells. Islet infiltration was scored on sequential hematoxylin and eosin stained pancreas sections separated by 200 μm. Islets were scored as no infiltration, less than 50% infiltration, or greater than 50% infiltration. […]"}, "[3]": {"system": "donor CD4+ T cells", "assay": "Acute graft versus host model: Treg phenotype of alloactivated donor CD4+ T cells", "type": "in vivo, mouse", "conditions": "B6D2F1 hosts, day 2", "procedure": "FIGS. 14a-14i show AHRL1 induces an AhR-dependent Treg phenotype by a mechanism that is mediated by the AhR in donor CD4+ T cells. The AhR-induced Tregs were identified as the CD4+CD25+CTLA-4+CD62L^low population of T cells. To determine if AHRL1 induced changes in donor CD4+ T cells, AHRL1 was compared with TCDD and the vehicle. On day 0, B6D2F1 host mice in groups of 5 were injected with CFSE-labeled C57BL/6 (H-2^b/b) T cells and given 15 mg/kg of AHRL1, 15 μg/kg of TCDD, or vehicle by i.p. injection. At 24 hours, an additional dose of 7 mg/kg of AHRL1 or vehicle was given. Mice that were treated with TCDD at the time of donor cell transfer were used as positive controls. Splenocytes were isolated on day 2 for phenotypic analysis of the alloresponsive (CFSE-diluted) donor CD4+ T cells. Splenocytes were harvested from the host mice and the CD4+ T cells were identified by flow cytometry.\nOn day 0, B6D2F1 host mice in groups of 5 were injected with donor T cells obtained from AhR^+/+ or AhR-deficient (AhR^−/−) C57BL/6 mice. Host mice were treated with 2 mg/kg of AHRL1 or vehicle immediately following donor cell transfer and again at 24 hours. […] Thus, the AhR in the CD4+ T cell is the primary target driving the AhR-Treg phenotype.\nOn day 0, B6D2F1 host mice in groups of 3-5 were injected with C57BL/6 T cells. Mice were immediately treated with 0 mg/kg, 0.4 mg/kg, 2 mg/kg, or 10 mg/kg of AHRL1 and again on day 1. On day 2, expression of markers associated with the AhR-Treg phenotype increased as the dose of AHRL1 increased. Further, dosing generally correlated with degree of activation of AhR as reflected by CYP1A1, CYP1B1, and AHRR expression in lymph nodes from the same mice. The asterisk (*) indicates a p-value of 0.05 relative to vehicle treatment.\nFIGS. 16c and 16d show expression of phenotypic markers, CD25+ICOS+CD62L^low and CD25+CTLA-4+, associated with AhR-Tregs in mice treated with AHRL1. Host mice were treated with 10 mg/kg of AHRL1, 11-Cl-BBQ analog, or vehicle on day 0 and day 1 following donor cell transfer. On day 2, the alloactivated CD4+ donor T cells were identified based on CFSE dilution. The percentage of donor cells in each group expressing the Treg markers were derived from flow histograms. The data represents mean±SEM of 5 mice per treatment. […] Analog 1 is statistically different from AHRL1 and analog 4 (p-value=0.05). […], analog 1, and analog 4 are shown to be AhR ligands that are capable of inducing Tregs in vivo. Accordingly, analogs 1 and 4 are expected to have a similar therapeutic effect in a subject as AHRL1 by suppressing an autoimmune response. Additionally, analog 6, analog 7, and other analogs of 11-Cl-BBQ, that are found to be active AhR ligands using the disclosed screening method, are expected to induce Tregs and suppress CTL to provide treatment and/or prevention of immune-mediated diseases."}},
  "data": [
    {"smiles": "Clc1cc2c(cc1Cl)Oc1cc(Cl)c(Cl)cc1O2", "note": "[TCDD, 2,3,7,8-tetrachlorodibenzo-p-dioxin]", "values": [
      {"measurement": "half-life", "setting": "[1]", "result": "approximately seven"},
      {"measurement": "islets showing no infiltration", "setting": "[2]", "result": "greater percentage of islets being free from infiltration"},
      {"measurement": "total number of alloactivated CD4+CD25+ T cells co-expressing CTLA-4+, ICOS, low CD62L", "setting": "[3]", "result": "increased"},
      {"measurement": "expression of ICOS on alloactivated donor CD4+ T cells", "setting": "[3]; AHRL1 15 mg/kg then 7 mg/kg, TCDD 15 μg/kg i.p.", "result": "significantly increased"}
    ]}
  ]
}
